Source: US20240327364A1, “THERAPEUTIC TARGETING OF GPR68 TO INDUCE FERROPTOSIS” (University Of Maryland, Baltimore, priority 2023, published 2024)

Tests used:
STK36 = molecular target: T1, STK36 (Homo sapiens, UniProt Q9NRP7); experiment: KinomeScan; format: binding; settings: read-out: % Control
T1 construct: purchased DiscoveRx (Fremont, CA)

FGFR2 = molecular target: T2, FGFR2 (Homo sapiens, UniProt P21802); experiment: KinomeScan; format: binding; settings: read-out: % Control
T2 construct: purchased DiscoveRx (Fremont, CA)

DCAMKL1 = molecular target: T3, DCAMKL1 (Homo sapiens, UniProt O15075); experiment: KinomeScan; format: binding; settings: read-out: % Control
T3 construct: purchased DiscoveRx (Fremont, CA), KinomeScan service
T3 sequence (O15075 whole entry): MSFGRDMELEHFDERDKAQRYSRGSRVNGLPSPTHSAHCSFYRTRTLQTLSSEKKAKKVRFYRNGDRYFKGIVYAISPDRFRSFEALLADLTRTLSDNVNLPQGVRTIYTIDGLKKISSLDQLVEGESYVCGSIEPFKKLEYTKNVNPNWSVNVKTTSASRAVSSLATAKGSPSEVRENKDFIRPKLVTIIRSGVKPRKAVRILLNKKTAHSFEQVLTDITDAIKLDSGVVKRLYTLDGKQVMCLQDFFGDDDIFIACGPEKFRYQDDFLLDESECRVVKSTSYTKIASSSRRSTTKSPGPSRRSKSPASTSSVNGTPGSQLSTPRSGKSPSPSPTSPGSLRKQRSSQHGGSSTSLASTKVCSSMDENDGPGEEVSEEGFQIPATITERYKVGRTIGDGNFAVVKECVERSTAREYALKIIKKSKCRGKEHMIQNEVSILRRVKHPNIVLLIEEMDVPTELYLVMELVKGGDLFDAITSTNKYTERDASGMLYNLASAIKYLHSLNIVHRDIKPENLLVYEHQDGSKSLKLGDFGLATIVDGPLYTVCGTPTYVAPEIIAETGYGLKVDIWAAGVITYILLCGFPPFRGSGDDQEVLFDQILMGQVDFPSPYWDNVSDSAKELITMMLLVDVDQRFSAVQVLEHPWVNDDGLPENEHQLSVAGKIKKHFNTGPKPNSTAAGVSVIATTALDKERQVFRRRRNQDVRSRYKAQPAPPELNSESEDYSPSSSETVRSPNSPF

Lpa1 = Lpa1 (Homo sapiens, UniProt Q92633); experiment: Lpa1 activity of OGM analogs (Table 5); format: cell-based
Experimental: GPCR profiling assays were performed by Millipore (St. Louis, MO) using in cells expressing Gα15, a promiscuous G protein that enhances GPCR coupling to downstream Ca2+ signaling pathways. KinomeScan was conducted by DiscoveRx (Fremont, CA). Since GPCRs represent >30% of targets for FDA-approved small molecules and are known to modulate cell migration, activity against 158 GPCRs was assessed based on their chemical structures. GPCRs (158) were tested for agonist and antagonist activity at 10 μM. […] Chemical segregation analysis of zebrafish phenotype was conducted to further identify the inhibitory activity responsible for the zebrafish phenotype. […] The identities of the R groups in Formula A are shown below in Table 5.

NK2 = molecular target: T4, NK2 (Homo sapiens, UniProt P21452); experiment: GPCR Profiler; format: cell-based
T4 construct: host or cells: Chem-1 cells expressing Gα15
T4 sequence (P21452 whole entry): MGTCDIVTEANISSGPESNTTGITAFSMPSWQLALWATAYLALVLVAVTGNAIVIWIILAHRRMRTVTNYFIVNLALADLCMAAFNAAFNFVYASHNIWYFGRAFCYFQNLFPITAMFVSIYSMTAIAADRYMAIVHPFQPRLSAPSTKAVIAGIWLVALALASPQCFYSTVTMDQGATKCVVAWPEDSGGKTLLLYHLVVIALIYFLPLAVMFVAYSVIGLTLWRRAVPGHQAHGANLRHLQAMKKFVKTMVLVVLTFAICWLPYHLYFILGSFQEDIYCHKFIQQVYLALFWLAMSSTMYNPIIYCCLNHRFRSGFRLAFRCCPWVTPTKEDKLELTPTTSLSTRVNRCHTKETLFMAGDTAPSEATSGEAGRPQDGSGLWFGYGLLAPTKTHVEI

mGlu1 = molecular target: T5, mGlu1 (Homo sapiens, UniProt Q13255); experiment: GPCR Profiler; format: cell-based
T5 construct: host or cells: Chem-1 cells expressing Gα15
T5 sequence (Q13255 19-1194): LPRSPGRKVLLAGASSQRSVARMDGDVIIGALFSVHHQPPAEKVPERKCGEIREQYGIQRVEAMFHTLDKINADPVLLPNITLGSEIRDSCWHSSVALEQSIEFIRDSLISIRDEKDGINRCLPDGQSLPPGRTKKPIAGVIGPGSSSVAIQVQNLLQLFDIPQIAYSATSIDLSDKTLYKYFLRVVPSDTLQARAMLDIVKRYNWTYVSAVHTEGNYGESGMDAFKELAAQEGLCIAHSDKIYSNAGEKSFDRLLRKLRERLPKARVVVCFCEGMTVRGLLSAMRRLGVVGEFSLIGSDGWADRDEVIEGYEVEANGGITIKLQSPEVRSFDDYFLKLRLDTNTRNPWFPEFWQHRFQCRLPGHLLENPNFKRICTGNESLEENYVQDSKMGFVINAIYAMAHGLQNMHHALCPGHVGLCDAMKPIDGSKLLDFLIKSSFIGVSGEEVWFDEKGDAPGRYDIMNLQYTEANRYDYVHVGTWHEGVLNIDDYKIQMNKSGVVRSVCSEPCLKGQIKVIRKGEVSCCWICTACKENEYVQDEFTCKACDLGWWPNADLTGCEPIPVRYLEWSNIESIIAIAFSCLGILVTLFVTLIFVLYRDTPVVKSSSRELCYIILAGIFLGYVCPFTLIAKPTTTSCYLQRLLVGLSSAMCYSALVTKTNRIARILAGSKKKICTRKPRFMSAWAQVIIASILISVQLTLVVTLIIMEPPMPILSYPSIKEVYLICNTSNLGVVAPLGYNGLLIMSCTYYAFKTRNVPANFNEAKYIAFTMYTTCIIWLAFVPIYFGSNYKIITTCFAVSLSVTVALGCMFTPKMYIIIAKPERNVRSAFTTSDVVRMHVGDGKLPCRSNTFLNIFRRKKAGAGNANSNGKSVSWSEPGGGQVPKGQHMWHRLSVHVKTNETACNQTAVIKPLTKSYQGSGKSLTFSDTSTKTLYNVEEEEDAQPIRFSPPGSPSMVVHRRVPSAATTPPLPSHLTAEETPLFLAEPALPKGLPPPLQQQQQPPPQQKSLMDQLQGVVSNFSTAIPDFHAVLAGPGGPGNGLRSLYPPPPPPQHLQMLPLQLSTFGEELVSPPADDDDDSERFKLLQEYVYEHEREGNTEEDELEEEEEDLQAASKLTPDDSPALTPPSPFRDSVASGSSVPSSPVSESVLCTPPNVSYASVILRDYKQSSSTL

FLT1 = molecular target: T6, FLT1 (Homo sapiens, UniProt P17948); experiment: KinomeScan; format: binding; settings: read-out: % Control
T6 construct: purchased DiscoveRx (Fremont, CA)

MST2 = molecular target: T7, MST2 (Homo sapiens, UniProt Q13188); experiment: KinomeScan; format: binding; settings: read-out: % Control
T7 construct: purchased DiscoveRx

SGK3 = molecular target: T8, SGK3 (Homo sapiens, UniProt Q96BR1); experiment: KinomeScan; format: binding; settings: read-out: % Control
T8 construct: purchased DiscoveRx (Fremont, CA)

ULK1 = molecular target: T9, ULK1 (Homo sapiens, UniProt O75385); experiment: KinomeScan; format: binding; settings: read-out: % Control
T9 construct: purchased DiscoveRx

GAL1 = molecular target: T10, GAL1 (Homo sapiens, UniProt P47211); experiment: GPCR Profiler; format: cell-based
T10 construct: host or cells: Chem-1 cells expressing Gα15
T10 sequence (P47211 whole entry): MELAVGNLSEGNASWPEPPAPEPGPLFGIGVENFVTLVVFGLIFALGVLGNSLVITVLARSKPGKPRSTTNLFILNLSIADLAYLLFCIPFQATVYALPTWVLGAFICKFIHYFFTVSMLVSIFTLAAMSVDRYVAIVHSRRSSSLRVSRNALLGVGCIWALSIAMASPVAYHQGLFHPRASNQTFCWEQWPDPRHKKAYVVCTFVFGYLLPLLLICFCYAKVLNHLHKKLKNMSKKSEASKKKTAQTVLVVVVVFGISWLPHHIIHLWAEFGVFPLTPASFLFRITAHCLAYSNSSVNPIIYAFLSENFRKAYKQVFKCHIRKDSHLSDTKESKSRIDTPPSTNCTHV

sst2 = molecular target: T11, sst2 (Homo sapiens, UniProt P30874); experiment: GPCR Profiler; format: cell-based
T11 construct: host or cells: Chem-1 cells with Gα15
T11 sequence (P30874 whole entry, species assumed): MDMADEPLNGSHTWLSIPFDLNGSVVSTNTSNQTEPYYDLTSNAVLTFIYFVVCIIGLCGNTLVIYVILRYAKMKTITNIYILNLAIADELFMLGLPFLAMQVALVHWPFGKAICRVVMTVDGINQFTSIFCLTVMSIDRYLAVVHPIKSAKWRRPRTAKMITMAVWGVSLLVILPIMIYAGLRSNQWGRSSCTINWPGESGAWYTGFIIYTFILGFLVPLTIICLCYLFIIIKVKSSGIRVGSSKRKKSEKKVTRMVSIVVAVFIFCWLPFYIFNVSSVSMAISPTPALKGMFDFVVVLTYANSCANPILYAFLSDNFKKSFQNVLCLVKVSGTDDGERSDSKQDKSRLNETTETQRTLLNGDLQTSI

RAF1 = molecular target: T12, RAF1 (Homo sapiens, UniProt P04049); experiment: KinomeScan; format: binding; settings: read-out: % Control
T12 construct: purchased DiscoveRx (Fremont, CA)

EPHB6 = molecular target: T13, EPHB6 (Homo sapiens, UniProt O15197); experiment: KinomeScan; format: binding; settings: read-out: % Control
T13 construct: purchased DiscoveRx (Fremont, CA)

EGFR(L858R, T790M) = molecular target: T14, EGFR(L858R, T790M) (Homo sapiens, UniProt P00533, L858R/T790M); experiment: KinomeScan; format: binding; settings: read-out: % Control
T14 construct: purchased DiscoveRx (Fremont, CA), KinomeScan service

ROCK2 = molecular target: T15, ROCK2 (Homo sapiens, UniProt O75116); experiment: KinomeScan; format: binding; settings: read-out: % Control
T15 construct: purchased DiscoveRx (Fremont, CA)

[1] = molecular target: T16, JAK1(JH1domain-catalytic) (Homo sapiens, UniProt P23458); experiment: KinomeScan; format: binding; settings: read-out: % Control
T16 construct: JAK1(JH1domain-catalytic); purchased DiscoveRx (Fremont, CA)
T16 sequence (P23458 875-1153 limits assumed): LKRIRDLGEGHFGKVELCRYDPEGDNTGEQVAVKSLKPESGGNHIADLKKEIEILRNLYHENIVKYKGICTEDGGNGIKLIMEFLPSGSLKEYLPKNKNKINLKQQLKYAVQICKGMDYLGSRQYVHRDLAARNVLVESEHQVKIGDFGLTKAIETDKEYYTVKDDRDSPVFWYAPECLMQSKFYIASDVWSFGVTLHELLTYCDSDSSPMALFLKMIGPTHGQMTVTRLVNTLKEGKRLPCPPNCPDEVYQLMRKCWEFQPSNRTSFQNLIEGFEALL

Trypsin activated PARS = experiment: GPCR Profiler; format: cell-based
BRAF(V600E) = molecular target: T17, BRAF(V600E) (Homo sapiens, UniProt P15056, V600E); experiment: KinomeScan; format: binding; settings: read-out: % Control
T17 construct: purchased DiscoveRx (Fremont, CA)

[2] = molecular target: T18, RSK4(Kin.Dom.2-C-terminal) (Homo sapiens, UniProt Q9UK32); experiment: KinomeScan; format: binding; settings: read-out: % Control
T18 construct: RSK4(Kin.Dom.2-C-terminal); purchased DiscoveRx (Fremont, CA)

MLK3 = molecular target: T19, MLK3 (Homo sapiens, UniProt Q16584); experiment: KinomeScan; format: binding; settings: read-out: % Control
T19 construct: purchased DiscoveRx

ERK2 = molecular target: T20, ERK2 (Homo sapiens, UniProt P28482); experiment: KinomeScan; format: binding; settings: read-out: % Control
T20 construct: purchased DiscoveRx (Fremont, CA)

MYLK = molecular target: T21, MYLK (Homo sapiens, UniProt Q15746); experiment: KinomeScan; format: binding; settings: read-out: % Control
T21 construct: purchased DiscoveRx

INSR = molecular target: T22, INSR (Homo sapiens, UniProt P06213); experiment: KinomeScan; format: binding; settings: read-out: % Control
T22 construct: purchased DiscoveRx (Fremont, CA)

YANK2 = molecular target: T23, YANK2 (Homo sapiens, UniProt Q9NY57); experiment: KinomeScan; format: binding; settings: read-out: % Control
T23 construct: purchased DiscoveRx

[3] = molecular target: T24, RPS6KA4(Kin.Dom.2-C-terminal) (Homo sapiens, UniProt O75676); experiment: KinomeScan; format: binding; settings: read-out: % Control
T24 construct: RPS6KA4(Kin.Dom.2-C-terminal); purchased DiscoveRx (Fremont, CA)

GSK3B = molecular target: T25, GSK3B (Homo sapiens, UniProt P49841); experiment: KinomeScan; format: binding; settings: read-out: % Control
T25 construct: purchased DiscoveRx (Fremont, CA)

PRKCQ = molecular target: T26, PRKCQ (Homo sapiens, UniProt Q04759); experiment: KinomeScan; format: binding; settings: read-out: % Control
T26 construct: purchased DiscoveRx (Fremont, CA)

ERBB2 = molecular target: T27, ERBB2 (Homo sapiens, UniProt P04626); experiment: KinomeScan; format: binding; settings: read-out: % Control
T27 construct: purchased DiscoveRx (Fremont, CA)

PIM2 = molecular target: T28, PIM2 (Homo sapiens, UniProt Q9P1W9); experiment: KinomeScan; format: binding; settings: read-out: % Control
T28 construct: purchased DiscoveRx (Fremont, CA)

CLK1 = CLK1 (Homo sapiens, UniProt P49759); experiment: KinomeScan; format: binding; settings: read-out: % Control
CysLT2 = molecular target: T29, CysLT2 (Homo sapiens, UniProt Q9NS75); experiment: GPCR Profiler; format: cell-based
T29 construct: host or cells: Chem-1 cells with Gα15
T29 sequence (Q9NS75 whole entry, species assumed): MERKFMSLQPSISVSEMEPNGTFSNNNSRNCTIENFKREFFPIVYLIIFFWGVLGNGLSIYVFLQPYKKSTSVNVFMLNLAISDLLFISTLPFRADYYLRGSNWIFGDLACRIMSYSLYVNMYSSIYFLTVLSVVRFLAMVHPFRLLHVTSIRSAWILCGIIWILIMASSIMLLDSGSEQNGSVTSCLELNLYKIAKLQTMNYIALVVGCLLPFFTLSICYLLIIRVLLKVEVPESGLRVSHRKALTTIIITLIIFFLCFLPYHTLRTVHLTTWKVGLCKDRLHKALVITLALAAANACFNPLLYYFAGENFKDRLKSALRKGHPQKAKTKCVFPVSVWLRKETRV

PIK3CD = molecular target: T30, PIK3CD (Homo sapiens, UniProt O00329); experiment: KinomeScan; format: binding; settings: read-out: % Control
T30 construct: purchased DiscoveRx (Fremont, CA)

T1 sequence (Q9NRP7 whole entry): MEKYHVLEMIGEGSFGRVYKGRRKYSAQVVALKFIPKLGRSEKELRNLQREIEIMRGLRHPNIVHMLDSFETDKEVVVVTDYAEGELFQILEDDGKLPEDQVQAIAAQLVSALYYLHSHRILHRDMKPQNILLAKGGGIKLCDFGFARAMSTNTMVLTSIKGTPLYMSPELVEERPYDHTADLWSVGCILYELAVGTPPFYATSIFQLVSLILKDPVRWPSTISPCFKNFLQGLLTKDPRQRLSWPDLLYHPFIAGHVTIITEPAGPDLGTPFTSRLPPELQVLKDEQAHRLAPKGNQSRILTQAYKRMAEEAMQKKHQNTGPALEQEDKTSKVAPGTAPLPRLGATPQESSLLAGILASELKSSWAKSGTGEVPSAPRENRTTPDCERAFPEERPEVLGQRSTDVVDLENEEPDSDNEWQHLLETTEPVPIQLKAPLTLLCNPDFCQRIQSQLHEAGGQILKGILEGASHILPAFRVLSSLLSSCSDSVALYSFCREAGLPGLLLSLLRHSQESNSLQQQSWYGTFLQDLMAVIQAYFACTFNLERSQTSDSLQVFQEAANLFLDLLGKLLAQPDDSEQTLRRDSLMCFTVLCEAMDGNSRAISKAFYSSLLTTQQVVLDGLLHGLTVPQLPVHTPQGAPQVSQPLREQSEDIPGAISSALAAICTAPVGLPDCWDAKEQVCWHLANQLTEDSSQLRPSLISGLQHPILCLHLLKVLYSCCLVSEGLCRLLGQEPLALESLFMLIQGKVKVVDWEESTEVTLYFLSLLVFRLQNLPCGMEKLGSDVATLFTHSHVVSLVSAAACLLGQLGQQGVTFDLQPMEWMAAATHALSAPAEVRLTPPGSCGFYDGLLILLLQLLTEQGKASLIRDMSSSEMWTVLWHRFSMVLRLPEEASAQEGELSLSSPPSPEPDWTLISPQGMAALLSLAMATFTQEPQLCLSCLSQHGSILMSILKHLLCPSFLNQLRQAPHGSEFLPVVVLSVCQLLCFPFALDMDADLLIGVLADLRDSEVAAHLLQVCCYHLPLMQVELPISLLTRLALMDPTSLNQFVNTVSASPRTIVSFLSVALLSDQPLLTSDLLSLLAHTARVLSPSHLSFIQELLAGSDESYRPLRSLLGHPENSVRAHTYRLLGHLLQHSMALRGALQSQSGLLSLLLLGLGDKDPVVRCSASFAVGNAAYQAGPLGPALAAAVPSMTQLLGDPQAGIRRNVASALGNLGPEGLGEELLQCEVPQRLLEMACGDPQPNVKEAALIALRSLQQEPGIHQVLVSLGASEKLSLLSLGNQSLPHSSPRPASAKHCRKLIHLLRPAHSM

CCc1ccc2c(c1)C1(NN=C(c3cccc4ccccc34)S1)C(=O)N2 (stereo not drawn) [OGM1, 5-ethyl-5′-naphthalen-1-ylspiro[1H-indole-3,2′-3H-1,3,4-thiadiazole]-2-one]
remaining binding at 10 µM (STK36): 100%
remaining binding at 10 µM (FGFR2): 100%
remaining binding at 10 µM (DCAMKL1): 72%
IC50 (Lpa1): 8.7 µM
Antagonism (NK2; 10 uM): 1
Agonism (NK2; 12.5 uM): 0
Antagonism (mGlu1; 10 uM): −12.7
Agonism (mGlu1; 12.5 uM): 1.1
remaining binding at 10 µM (FLT1): 100%
remaining binding at 10 µM (MST2): 69%
remaining binding at 10 µM (SGK3): 56%
remaining binding at 10 µM (ULK1): 100%
Antagonism (GAL1; 10 uM): −7.3
Agonism (GAL1; 12.5 uM): 1.6
Antagonism (sst2; 10 uM): −1
Agonism (sst2; 12.5 uM): −0.2
remaining binding at 10 µM (RAF1): 100%
remaining binding at 10 µM (EPHB6): 76%
remaining binding at 10 µM (EGFR(L858R, T790M)): 89%
remaining binding at 10 µM (ROCK2): 73%
remaining binding at 10 µM [1]: 59%
Antagonism (Trypsin activated PARS; 10 uM): 18.2
Agonism (Trypsin activated PARS; 12.5 uM): 0
remaining binding at 10 µM (BRAF(V600E)): 94%
remaining binding at 10 µM [2]: 41%
remaining binding at 10 µM (MLK3): 100%
remaining binding at 10 µM (ERK2): 77%
remaining binding at 10 µM (MYLK): 91%
remaining binding at 10 µM (INSR): 80%
remaining binding at 10 µM (YANK2): 100%
remaining binding at 10 µM [3]: 74%
remaining binding at 10 µM (GSK3B): 83%
remaining binding at 10 µM (PRKCQ): 99%
remaining binding at 10 µM (ERBB2): 65%
remaining binding at 10 µM (PIM2): 84%
remaining binding at 10 µM (CLK1): 100%
Antagonism (CysLT2; 10 uM): −7.1
Agonism (CysLT2; 12.5 uM): −0.3
remaining binding at 10 µM (PIK3CD): 55%
